Consider four molecules from patent US20220290103A1, “METHODS AND COMPOSITIONS USING AUXOTROPHIC REGULATABLE CELLS” (AUXOLYTIC LTD, priority 2019, published 2022).

Data set [1] relates to UMPS locus. Nature of the data set: InDel frequency at end of culture. The data set is classed as cell-based, human. As to conditions: UMPS knockout T cells not exposed to 5-FOA, with metabolite, day 8. The text has this:
To confirm the results on the genomic level, genomic DNA was harvested at the end of the experiment and InDels were quantified (FIG. 5D-FIG. 5E). FIG. 5D compares the frequency of InDels in different culture conditions for cells not exposed to 5-FOA.

The subject of data set [2] is UMPS knockout T cells. Nature of the data set: Cell counts over time after electroporation (Trypan blue). In kind it is cell-based, human. Conditions: supplemented at 250 μg/ml. An excerpt:
To evaluate whether the UMPS knockout leads to differential cell proliferation if cultured without the addition of Uridine or Uridine monophosphate (UMP), the cell counts in culture were followed over time by automatic cell counting with Trypan blue staining. UMPS knockout led to lower cell counts from day 2 after electroporation, compared to cells that were mock electroporated or electroporated using Cas9 targeting a different genomic locus (i.e., CCR5) (FIG. 5B).
In contrast, cell proliferation was not impaired after UMPS knockout if UMP or Uridine were supplemented at high concentrations (250 μg/ml each) (FIG. 5C).

A further data set concerns Mock edited T cells. Kind of data set: Time course of cell counts with/without UMP or uridine. In kind it is cell-based, human. As to conditions: with metabolite 250 μg/ml. Here is the method: (§1) Cells were cryopreserved in BAMBANKER™ medium. After thawing cells were cultured at 37° C., 5% CO2 in X-Vivo 15 (Lonza) supplemented with or without 5% human serum (Sigma-Aldrich) and […] human recombinant IL-2 (Peprotech) and 10 ng/ml human recombinant IL-7 (BD Biosciences). UMP or Uridine was added at 250 μg/ml. 5-FOA was added at 100 μg/ml to 1 mg/ml. During culture, medium was refreshed every 2 days.
(§2) Genomic DNA was harvested using QUICKEXTRACT™ DNA Extraction Kit (Epicentre). Cells were counted on an automated cell counter using Trypan blue staining or on a CytoFLEX flow cytometer (Beckman Coulter) with automatic plate reader using COUNTBRIGHT™ beads (ThermoFisher) as a reference for normalizing the values. Alternatively, cells were analyzed after staining with fluorochrome-labelled antibodies (Biolegend) on an ACCURI™ C6 flow cytometer (BD Biosciences), which also measures volumes, or a FACS ARIA™ II SORP cell sorter (BD Biosciences). Data was analyzed using Excel (Microsoft) and FlowJo software (Tree Star).
(§3) T Cells were electroporated and edited as in Example 2 and allowed to recover for a 4-day period in medium with serum, uridine, and UMP. On day 4, cells were shifted to UMP, uridine, or uracil source media.

The subject of a further data set is CCR5 knockout T cells. The description is as above. The data set is classed as cell-based, human. As to conditions: with metabolite 250 μg/ml. Here is the method: as §1, §2, §3
Data set [3] deals with UMPS knockout T cells. Described as above. The data set is classed as cell-based, human. As to conditions: to the same level as mock edited cells. Here is the method: as §1, §2, §3
The test system of another data set is UMPS-7 targeted T cells. Kind of data set: 5-FOA selection, cell counts after 4 days. As to conditions: for Survival in 5-FOA compared to control: both mock treated and UMPS targeted cells; for Average number of cells per volume unit: UMPS-7, grown in 5-FOA 4 days, UMP + Urid; for Average of cells per volume unit: UMPS-7, grown in 5-FOA without serum. In kind it is cell-based, human. Here is the method:
(§4) 5-FOA selects for uracil auxotrophic cells in other organisms (e.g. Boeke et al. 1984, Mol. Gen. Genet. 197(2):345-6), which is hereby incorporated by reference in its entirety). To investigate the potential utility of 5-FOA for the selection of uracil auxotrophs among human cells, the UMPS gene was targeted in human T cells by Cas9-gRNA complex electroporation followed by recovery (as shown in Example 2) followed by an assay of resistance to 5-FOA treatment (FIG. 3A). Cells were grown in 5-FOA and a variety of combinations of serum and uracil sources for 4 days before cell counting was performed.

Data set [4] concerns UMPS-KO T cells mixed with wild-type T cells. Nature of the data set: 5-FOA selection in mixed population of T cells, FACS. In kind it is cell-based, human. An excerpt: To evaluate the possibility to select for UMPS^KO/KO cells with 5-FOA, the sorted cells were mixed with wild-type cells, which were labeled with different tracking dyes, and cultured in the presence or absence of 5-FOA. In part of the samples, 5-FOA was only added on the first day (Day 0) while in another group it was supplemented daily. Table 30 and FIG. 7C show the percent (%) of the UMPS-KO T cells (labelled with eFluor670) over time when culturing with or without 5-FOA.
In fact, FACS analysis of a culture of a mixed population of UMPS knockout and wild-type T cells with 5-FOA. UMPS-KO T cells were labeled with eFluor670, and wild-type cells were labeled with carboxyfluorescein succinimidyl ester (CFSE). […] On Day 0 in the control group not treated with 5-FOA, 47.7% of the cells were UMPS-KO T cells, and 52.1% were wild-type cells. On Day 3 in the group with 5-FOA supplemented daily, 74.0% of the cells were UMPS-KO T cells, while 25.8% were wild-type cells. On Day 3 in the control group not treated with 5-FOA, 43.1% of the cells were UMPS-KO T cells, and 56.4% were wild-type cells.

A further data set concerns UMPS^WT/WT cells (GFP−). Nature of the data set: 5-FOA resistance in co-culture, FACS. In kind it is cell-based, human. As to conditions: all tested 5-FOA concentrations. An excerpt:
(§5) To assess resistance to 5-FOA, the UMPS-KO hESCs were genetically engineered to express GFP from an expression cassette integrated into a safe-harbor locus for easier identification in co-culture with UMPS-WT cells.
(§6) These UMPS^KO/KO hESCs were mixed with UMPS^WT/WT cells that were not expressing GFP and followed up by fluorescence-activated cell sorting (FACS) analysis in the presence of different concentrations of 5-FOA. Table 16 provides counts of viable GFP+ and GFP− cells after culture with different 5-FOA concentrations.

In another data set the test system is UMPS^KO/KO hESCs (GFP+). Nature of the data set: 5-FOA resistance in co-culture, FACS. The data set is classed as cell-based, human.
Description: as §5, §6

For data set [5], the system named is UMPS^KO/KO/GFP^+ K562 cells mixed with UMPS^WT/WT/GFP-negative K562 cells. Nature of the data set: 5-FOA resistance in mixed culture. In kind it is cell-based, human. As to the method:
To determine the resistance of UMPS knockout cells to 5-FOA the purified UMPS^KO/KO/GFP^+ K562 cells were mixed at an equal ratio with UMPS^WT/WT/GFP-negative K562 cells. The cells were cultured in the presence of Uridine and different concentrations of 5-FOA (FIG. 6F).

The next data set deals with Mock T cells. Nature of the data set: 5-FOA selection, cell counts after 4 days. In kind it is cell-based, human. Conditions: for Average number of cells per volume unit: grown in 5-FOA 4 days, UMP + Urid; for Average of cells per volume unit: grown in 5-FOA without serum. As to the method: as §4
A further data set has as its system UMPS^KO/KO hESCs. Kind of data set: Auxotrophy assay with different uridine concentrations. As to conditions: 2.5-250 μg/ml uridine, day 4. The data set is classed as cell-based, human. As to the method:
The UMP S locus was disrupted in the hESCs by electroporation of Cas9 RNP and selection of a clone with InDels in exon 1 as evaluated by amplification and Sanger sequencing of the genomic locus. For gene editing, hESCs were treated with 10 μm ROCK inhibitor (Y-27632) for 24 hours before electroporation. Cells at 70-80% confluence were harvested with ACCUTASE® solution (Life Technologies). 500,000 cells were used per reaction with a SpCas9 concentration of 150 μg/mL (Integrated DNA Technologies) and a Cas9:sgRNA molar ratio of 1:3 and electroporation performed in P3 Primary Cell solution (Lonza) in 16-well NUCLEOCUVETTE™ Strips in the 4D NUCLEOFECTOR system (Lonza). Immediately after electroporation, cells were transferred into one well of a […]® protein mixture (Corning, Inc.)-coated 24 well plate containing 500 μl of mTeSR™ media ([…] Technologies) with 10 μM Y-27632. Media was changed 24 hours after editing and Y-27632 was removed 48 hours after.
An auxotrophy assay was performed over four days with different concentrations of uridine. Microscope photos of wells were taken on day 4 after seeding UMPS^KO/KO hESCs at similar densities and culturing in the presence of different uridine concentrations. […] Quantification of viable cells on day 4 after seeding to evaluate the effect of different uridine concentrations is shown in Table 15.

For data set [6] the following is noted: also broken down in the liver; cited from earlier work.
The test system of data set [7] is UMPS locus. Kind of data set: sgRNA activity screening, InDel quantification by ICE and ICE-D. Conditions: activated T cells, 4 days after electroporation with Cas9. The data set is classed as cell-based, human. An excerpt: sgRNAs were acquired with chemical modifications from Synthego Corporation. The sgRNAs were complexed with Cas9 protein (IDT) at a molar ration of 2.5:1 (sgRNA:protein) and electroporated into activated T cells using a 4D-NUCLEOFECTOR™ system (Lonza). 4 days later, cells were harvested, and genomic DNA extracted using QUICKEXTRACT™ DNA Extraction Kit (Epicentre) according to the manufacturer's protocol. The sgRNA target site was amplified with specific primers (Table 18) and the amplicon sequenced by Sanger sequencing (MCLab, South San Francisco).
InDel quantification was performed on the sequences using the interference of CRISPR edits (ICE) and ICE-D online tools (ice.synthego.com) (FIG. 5A).

For the molecule `O=c1ccn([C@@H]2O[C@H](COP(=O)(O)O)[C@@H](O)[C@H]2O)c(=O)[nH]1` [UMP, Uridine monophosphate], in the data set with UMPS locus [1], the “Frameshift InDel frequency” value is on record as 46.1%. In addition, the “Overall InDel frequency” value in the data set on UMPS locus [1] stood at 71.1%. Also, the “Cell proliferation after UMPS knockout” value in the data set on UMPS knockout T cells [2] is “not impaired”. For the same molecule, the Cell density in the data set with Mock edited T cells (Day 4) stood at 3.80E+06 cells per ml; with Mock edited T cells (Day 8) it was 3.90E+06 cells per ml; with CCR5 knockout T cells (Day 2) it was 1.80E+06 cells per ml; in the data set with CCR5 knockout T cells (Day 6), 3.80E+06 cells per ml. Also, the “Growth of UMPS edited culture” value in the data set with UMPS knockout T cells [3] was “rescued the growth”. For the same molecule, the “Survival in 5-FOA compared to control” value in the data set with UMPS-7 targeted T cells was “improved the survival”.
Turning to `O=C(O)c1[nH]c(=O)[nH]c(=O)c1F` [5-FOA, 5-fluoroorotic acid], the “Percent of UMPS^KO/KO cells in mixed cell population” value in data set [4] (5-FOA daily, Day 3) was determined as 74.0%. Besides, the “wild-type cells among the cells (FACS)” value in [4] (5-FOA only on the first day, Day 0) turned out to be 56.0%. In [4] (5-FOA supplemented daily, Day 3), the “UMPS-KO T cells among the cells (FACS)” value was 74.0%. For the same molecule, the “Sensitivity of UMPS-WT cells” value in the data set with UMPS^WT/WT cells (GFP−) is recorded as “sensitive”. Moreover, the “Tolerance of UMPS-KO cells” value in the data set with UMPS^KO/KO hESCs (GFP+) (5-FOA 0.25 μg/ml) is listed as “tolerated”. The “Proliferation of UMPS-KO cells” value in the data set with UMPS^KO/KO hESCs (GFP+) (5-FOA concentrations higher than 0.25 μg/ml) was “impaired proliferation”. Further, in [5] (5-FOA 10 and 100 μg/ml), the “Proliferation of cells with UMP knockouts” value was “proliferated well”. The “Cell growth of cells with UMP knockouts” value in [5] (highest 5-FOA concentration) is recorded as “slowed their cell growth down”. For the same molecule, the “Average number of cells per volume unit” value turned out to be 72385.14 in the data set on UMPS-7 targeted T cells (No Serum), 72181.87 in the data set with UMPS-7 targeted T cells (With Serum), 49125.44 in the data set on Mock T cells (No Serum) and 63071.71 in the data set on Mock T cells (With Serum). Further, the “Average of cells per volume unit” value is 58299.26 with UMPS-7 targeted T cells (UMP), 77755.72 in the data set on UMPS-7 targeted T cells (Uridine), 24770.99 in the data set with Mock T cells (UMP) and 53052.43 in the data set with Mock T cells (Uridine).
Turning to `O=c1ccn([C@@H]2O[C@H](CO)[C@@H](O)[C@H]2O)c(=O)[nH]1` [Uridine, uridine], in the data set with UMPS^KO/KO hESCs, the “Proliferation (microscope photos)” value is “proliferated”. In addition, in the data set with UMPS locus [1], the “Frameshift InDel frequency” value turned out to be 52.5% and the “Overall InDel frequency” value was determined as 77.0%. The “Cell proliferation after UMPS knockout” value in the data set on UMPS knockout T cells [2] is listed as “not impaired”. For the same molecule, the Cell density in the data set with Mock edited T cells (Day 4) was determined as 3.90E+06 cells per ml. Further, the Cell density in the data set on CCR5 knockout T cells (Day 4) was 3.70E+06 cells per ml. Moreover, the “Growth of UMPS edited culture” value in the data set with UMPS knockout T cells [3] was “rescued the growth”. In data set [6], the “Absorption in the gastrointestinal tract” value was “poorly absorbed”. The “Survival in 5-FOA compared to control” value in the data set on UMPS-7 targeted T cells is reported as “improved the survival”.

B1: UMPS-7: sgRNA targeting exon 1 of UMPS, SEQ ID NO: 1; target sequence + PAM SEQ ID NO: 5 (nucleic acid)
guide: GCCCCGCAGAUCGAUGUAGAGUUUUAGAGCUAGAAAUAGCAAGUUAAAAUAAGGCUAGUCCGUUAUCAACUUGAAAAAGUGGCACCGAGUCGGUGCUUUU
modifications: listed as RNA, chemistry not given here
With B1, in the data set on UMPS locus [7], the “ICE InDels” value worked out at 39% and the “ICE-D InDels” value is recorded as 93%.
